Measurements: patent publication US20080182877A1, “Rimonabant forms and methods of making the same” (priority 2007, published 2008)
Counter-ions that a name gives are not always drawn.

Columns and labels:
Format in all cases: physicochemical
[1] = Stability of the salt towards solvents (crystallization or stirring of a suspension)
Description: A known rimonabant solvate form, a rimonabant ethanol solvate, is disclosed in U.S. Pat. No. 5,624,941 (Example 212). According to U.S. Pat. No. 5,624,941, this ethanol solvate may be made by crystallizing rimonabant from ethanol. It has now been discovered that the same rimonabant ethanol solvate may be obtained by a novel solvent mediated transformation, such as by suspending and stirring the anhydrous rimonabant base in a liquid comprising ethanol. For example, the liquid may be an ethanol/water mixture, e.g. having a 3:1 (V/V) ratio. Also the crystallization of rimonabant hydrochloride from an ethanol/water mixture may provide for the known ethanolate of rimonabant base, which is another process not disclosed in the prior art and indicates the instability of rimonabant hydrochloride towards solvents comprising ethanol. As described more fully below, this ethanol solvate can be used to form amorphous rimonabant.
In this regard, the rimonabant salt can precipitate as the base, either by addition of a neutralizing base or spontaneously, and/or can precipitate as the salt and convert to the base by a solvent mediated transformation. Accordingly, stirring a suspension of rimonabant hydrochloride in a solvent comprising water (e.g. water/methanol=30:1 V/V) at ambient temperature provides for solvent-mediated polymorphic transformation yielding the Form III of rimonabant base. […]

[2] = Storage stability of solid forms at room temperature
Protocol: In detail, rimonabant base may be isolated in a new solid state crystalline hydrate form, designated as the Form III. Form III is characterized by the XRPD spectrum having characteristic peaks at angles of around 9.29°, 10.49°, 13.52°, 15.25°, 17.78° using a 2-theta scale. […] The hydrated Form III is stable during storage at room temperature.
In general, a mixture of the hydrated Form III and the methanol solvate Form IV may be obtained after a crystallization of rimonabant base from a methanol solvent containing water. Mixtures of the hydrated Form III and the methanol solvate Form IV may also be obtained by crystallizing rimonabant base and rimonabant hydrochloride from methanol/water mixtures. A longer crystallization time, a slower cooling, and a lower solute concentration each generally promote the crystallization of Form III over Form IV. […] The methanolate Form IV is thus a thermodynamically unstable form. A mixture of Forms III and Form IV is also useful for making particulated amorphous rimonabant base.
Rimonabant base may also be isolated in a propanol solvate form, designated as the Form VI. Form VI is characterized by the following XRPD having characteristic peaks at angles of around 6.73°, 8.36°, 9.92°, 11.98°, 13.45°, 14.34°, 18.14°, 21.43°, 21.88°, 24.13°, 31.03° and 32.28° using a 2-theta scale. […] Instead, the known Form I of the crystalline anhydrous rimonabant is provided after a crystallization from 2-propanol. Form VI may be obtained by crystallizing rimonabant base from a 1-propanol solvent. For example, the crystallization may be induced by a slow evaporation of the 1-propanol solvent.

Solubility in water = conditions: compared with the known Form I
Description: In general, only the hydrated Form III rimonabant is obtainable by a process employing water as the solvent. The other known solvent-free forms I and II are made by a process employing solely an organic solvent. The Form III is thus an advantageous form from technological and ecological reasons.

[3] = Thermal desolvation of hydrates/solvates by heating/drying; conditions: among Form III, IV, V and VI; temperature higher than 80° C. preferable
Description: The conversion of any of the above hydrates and/or solvates, as well as mixtures thereof, to the particulated amorphous rimonabant base may be performed by a heating (drying) thereof at an enhanced temperature (e.g., higher than room temperature), preferably at diminished pressure (e.g., lower than atmospheric pressure). The transformation into the particulated amorphous rimonabant base may be accomplished by the fact that the crystalline lattice of any of the solvates and/or hydrates is thermally unstable and may collapse at an enhanced temperature without any further recrystallization into the most thermodynamically stable form of rimonabant, the Form I. Accordingly the Form I cannot apparently be converted into the amorphous form by such a simple transformation.
The fastest loss of the bound solvent in combination with amorphization occurs for the ethanol solvate, where the heating/drying of the product takes place at 60° C. or more, generally 60-80° C. Accordingly, the ethanol solvate can be used to obtain powderized amorphous rimonabant base. For other hydrates/solvates, e.g., for the methanolate Form IV, propanolate Form VI, hydrate Form III or hydrate Form V, a temperature higher than 80° C. is preferable to facilitate the conversion into the particulate amorphous rimonabant base. […]

For Cc1c(C(=O)NN2CCCCC2)nn(-c2ccc(Cl)cc2Cl)c1-c1ccc(Cl)cc1 [rimonabant hydrochloride], the “stability towards solvents comprising ethanol” value ([1]; crystallization from an ethanol/water mixture gives the ethanolate of the base) was “instability” and the “stability towards solvents comprising water” value ([1]; e.g. water/methanol 30:1 V/V, ambient temperature, yields Form III of the base) was “not stable”.

In the case of Cc1c(C(=O)NN2CCCCC2)nn(-c2ccc(Cl)cc2Cl)c1-c1ccc(Cl)cc1 [Form IV, Rimonabant], the conversion during storage ([2]; in the presence of air humidity) is reported as “may be converted into Form III”.

With Cc1c(C(=O)NN2CCCCC2)nn(-c2ccc(Cl)cc2Cl)c1-c1ccc(Cl)cc1 [Form III, Rimonabant] the stability during storage [2] was “stable” and the solubility in water (Solubility in water) was “same solubility in water as the known Form I”.

In the case of Cc1c(C(=O)NN2CCCCC2)nn(-c2ccc(Cl)cc2Cl)c1-c1ccc(Cl)cc1 [Form VI, Rimonabant], the stability during storage [2] is reported as “sufficiently stable” and the “relative stability to heating/drying (desolvation)” value [3] is reported as “most stable”.
